Read-outs that look alike come from different tables or passages of the source.
System: cancer cell lines
Experiment: Cancer cell proliferation activity (CellTiterGlo, 72 h)
Assay type: cell-based
Conditions: 72 h, 72 h, read-out: IC50
Experimental: Dose response relationships on cell proliferation was assessed for representative Compounds of the Disclosure on cancer cell lines. Briefly, compound treatment of cells started one day after seeding with a final DMSO concentration of 0.1%, and was performed by nanodrop-dispensing using a Tecan Dispenser. 0.1% DMSO (solvent) and Staurosporine (10 μM) served as high control (100% viability) and low control (0% viability), respectively.
Cells were cultured in the appropriate media. For the assays, cells were seeded in white cell culture-treated flat and clear bottom multiwell plates and incubated at 37° C. overnight before compound was added. After incubation for 72 h at 37° C. at 5% or 10% CO2 dependent on the medium, cell plates were equilibrated to room temperature for one hour, CellTiterGlo reagent (Promega) was added and luminescence was measured approximately an hour later using a luminometer.
Raw data were converted into percent cell viability relative to the high and low control, which were set to 100% and 0%, respectively.
The IC50 values are summarized in Tables 9A-1, Table 10A, and Table 10B.

CC[C@]1(CO)O[C@@H](n2cnc3c(N)nc(F)nc32)[C@H](O)[C@@H]1O [Cpd. No. 173, (2R,3S,4R,5R)-5-(6-amino-2-fluoro-9H-purin-9-yl)-2-ethyl-2-(hydroxymethyl)tetrahydrofuran-3,4-diol]
IC50 (5637 cell line (bladder)): 220 nM | IC50 (AS49 cell line (lung)): 240 nM | IC50 (CLS439 cell line (bladder)): 610 nM | IC50 (HS729 cell line (muscle)): 210 nM | IC50 (JAR cell line (placenta)): 50 nM | IC50 (Homo sapiens, 22Rv1, 72 h, 22RV1 cell line (prostate)): 220 nM | IC50 (Homo sapiens, 786-0, 72 h, 786O cell line (kidney)): 110 nM | IC50 (Homo sapiens, A204, 72 h, A204 cell line (muscle)): 70 nM | IC50 (Homo sapiens, A673, 72 h, A673 cell line (bone)): 570 nM | IC50 (Homo sapiens, A2780, 72 h, A2780 cell line (ovary)): 200 nM | IC50 (Homo sapiens, A-375, 72 h, A375 cell line (skin)): 140 nM | IC50 (Homo sapiens, A-431, 72 h, A431 cell line (skin)): 70 nM | IC50 (Homo sapiens, ACHN, ACHN cell line (kidney)): 280 nM | IC50 (Homo sapiens, ASPC1, 72 h, ASPC1 cell line (pancreas)): 50 nM | IC50 (Homo sapiens, BT-20, 72 h, BT20 cell line (breast)): 100 nM | IC50 (Homo sapiens, BXPC-3, 72 h, BXPC3 cell line (pancreas)): 210 nM | IC50 (Homo sapiens, C-33-A, C33A cell line (cervical)): 190 nM | IC50 (Homo sapiens, CAKI-1, 72 h, CAKI1 cell line (kidney)): 10 nM | IC50 (Homo sapiens, COLO 205, 72 h, COLO205 cell line (colon)): 260 nM | IC50 (Homo sapiens, COLO-678, 72 h, COLO678 cell line (colon)): 390 nM | IC50 (Homo sapiens, Ca-Ski, CASKI cell line (cervical)): 60 nM | IC50 (Homo sapiens, Caco-2, 72 h, CACO2 cell line (colon)): 280 nM | IC50 (Homo sapiens, Calu-6, 72 h, CALU6 cell line (lung)): 60 nM | IC50 (Homo sapiens, DLD-1, 72 h, DLD1 cell line (colon)): 260 nM | IC50 (Homo sapiens, DU-145, 72 h, DU145 cell line (prostate)): 20 nM | IC50 (Homo sapiens, EFO-21, 72 h, EFO21 cell line (ovary)): 130 nM | IC50 (Homo sapiens, EJ-28, 72 h, EJ28 cell line (bladder)): 90 nM | IC50 (Homo sapiens, Granta-519, 72 h, GRANTA-519 cell line (hematological)): 560 nM | IC50 (Homo sapiens, HCT-15, 72 h, HCT15 cell line (colon)): 300 nM | IC50 (Homo sapiens, HCT-116, 72 h, HCT116 cell line (colon)): 230 nM | IC50 (Homo sapiens, HEK293, 72 h, HEK293 cell line (kidney)): 140 nM | IC50 (Homo sapiens, HL-60, 72 h, HL-60 cell line (hematological)): 70 nM | IC50 (Homo sapiens, HT-29, 72 h, HT29 cell line (colon)): 160 nM | IC50 (Homo sapiens, HT-1080, 72 h, HT1080 cell line (connective tissue)): 720 nM | IC50 (Homo sapiens, HeLa, HELA cell line (cervical)): 110 nM | IC50 (Homo sapiens, HepG2, 72 h, HEPG2 cell line (liver)): 110 nM | IC50 (Homo sapiens, Hs-578T, HS578T cell line, breast): 90 nM | IC50 (Homo sapiens, IGROV-1, 72 h, IGROV1 cell line (ovary)): 50 nM | IC50 (Homo sapiens, IMR-90, 72 h, IMR90 cell line, lung): 150 nM | IC50 (Homo sapiens, J82, 72 h, J82 cell line (bladder)): 150 nM | IC50 (Homo sapiens, JEG-3, 72 h, JEG3 cell line (placenta)): 40 nM | IC50 (Homo sapiens, JIMT-1, 72 h, JIMT1 cell line (breast)): 20 nM | IC50 (Homo sapiens, K562, 72 h, K-562 cell line (hematological)): 500 nM | IC50 (Homo sapiens, Kasumi 1, 72 h, KASUMI-1 cell line (hematological)): 20 nM | IC50 (Homo sapiens, L-363, 72 h, L-363 cell line (hematological)): 40 nM | IC50 (Homo sapiens, LoVo, LOVO cell line (colon)): 40 nM | IC50 (Homo sapiens, MCF7, 72 h, MCF7 cell line (breast)): 2400 nM | IC50 (Homo sapiens, MDA-MB-231, 72 h, MDAMB231 cell line (breast)): 570 nM | IC50 (Homo sapiens, MDA-MB-435, 72 h, MDAMB435 cell line (skin)): 250 nM | IC50 (Homo sapiens, MDA-MB-436, 72 h, MDAMB436 cell line (breast)): 70 nM | IC50 (Homo sapiens, MDA-MB-468, 72 h, MDAMB468 cell line (breast)): 100 nM | IC50 (Homo sapiens, MG-63, 72 h, MG63 cell line (bone)): 2360 nM | IC50 (Homo sapiens, MHH-ES-1, 72 h, MHHES1 cell line (bone)): 120 nM | IC50 (Homo sapiens, MIA PaCa-2, 72 h, MIAPACA2 cell line (pancreas)): 2770 nM | IC50 (Homo sapiens, MINO, MINO cell line (hematological)): 30 nM | IC50 (Homo sapiens, MV4-11, 72 h, MV4-11 cell line (hematological)): 30 nM | IC50 (Homo sapiens, NCI-H23, 72 h, NCI-H23 cell line (lung)): 70 nM | IC50 (Homo sapiens, NCI-H82, 72 h, NCIH82 cell line (lung)): 70 nM | IC50 (Homo sapiens, NCI-H292, 72 h, NCIH292 cell line (lung)): 470 nM | IC50 (Homo sapiens, NCI-H460, 72 h, NCIH460 cell line (lung)): 150 nM | IC50 (Homo sapiens, OVCAR-3, 72 h, OVCAR3 cell line (ovary)): 80 nM | IC50 (Homo sapiens, OVCAR-4, 72 h, OVCAR4 cell line (ovary)): 130 nM | IC50 (Homo sapiens, PANC-1, 72 h, PANC1 cell line (pancreas)): 2820 nM | IC50 (Homo sapiens, PC-3, 72 h, PC3 cell line (prostate)): 130 nM | IC50 (Homo sapiens, PLC-PRF-5, 72 h, PLCPRF5 cell line (liver)): 630 nM | IC50 (Homo sapiens, Panc1005, 72 h, PANC1005 cell line (pancreas)): 130 nM | IC50 (Homo sapiens, RD, RD cell line (muscle)): 190 nM | IC50 (Homo sapiens, Ramos, RAMOS cell line (hematological)): 80 nM | IC50 (Homo sapiens, SAOS-2, 72 h, SAOS2 cell line (bone)): 100 nM | IC50 (Homo sapiens, SF-268, 72 h, SF268 cell line (brain)): 670 nM | IC50 (Homo sapiens, SF-295, 72 h, SF295 cell line (brain)): 440 nM | IC50 (Homo sapiens, SK-BR-3, 72 h, SKBR3 cell line (breast)): 10 nM | IC50 (Homo sapiens, SK-HEP1, 72 h, SKHEP1 cell line (liver)): 190 nM | IC50 (Homo sapiens, SK-LMS-1, 72 h, SKLMS1 cell line (uterus)): 90 nM | IC50 (Homo sapiens, SK-MEL-5, 72 h, SKMEL5 cell line, skin): 420 nM | IC50 (Homo sapiens, SK-MEL-28, 72 h, SKMEL28 cell line (skin)): 150 nM | IC50 (Homo sapiens, SK-N-AS, SKNAS cell line (brain)): 160 nM | IC50 (Homo sapiens, SK-N-SH, SKNSH cell line (brain)): 140 nM | IC50 (Homo sapiens, SK-OV-3, 72 h, SKOV3 cell line (ovary)): 100 nM | IC50 (Homo sapiens, SNB-75, 72 h, SNB75 cell line (brain)): 240 nM | IC50 (Homo sapiens, SU-DHL10, 72 h, SU-DHL-10 cell line (hematological)): 200 nM | IC50 (Homo sapiens, SU-DHL-6, 72 h, SU-DHL-6 cell line (hematological)): 50 nM | IC50 (Homo sapiens, SW-620, 72 h, SW620 cell line (colon)): 90 nM | IC50 (Homo sapiens, T-24, 72 h, T24 cell line (bladder)): 140 nM | IC50 (Homo sapiens, TE-671, 72 h, TE671 cell line (muscle)): 620 nM | IC50 (Homo sapiens, THP-1, 72 h, THP-1 cell line (hematological)): 980 nM | IC50 (Homo sapiens, U2OS, U2OS cell line (bone)): 80 nM | IC50 (Homo sapiens, U-87 MG, U87MG cell line (brain)): 380 nM | IC50 (Homo sapiens, UMUC3, 72 h, UMUC3 cell line (bladder)): 460 nM | IC50 (Homo sapiens, UO-31, 72 h, UO31 cell line (kidney)): 50 nM | IC50 (Homo sapiens, WSU-NHL, WSU-NHL cell line (hematological)): 40 nM | IC50 (MT-3, 72 h, MT3 cell line (breast)): 100 nM | IC50 (NCI-H358M, NCIH358M cell line (lung)): 150 nM | IC50 (PBMC, PBMC (hematological)): > 50000 nM | IC50 (RD-ES, RDES cell line (bone)): 60 nM

Source: US20250215039A1, “NUCLEOSIDES FOR TREATING CANCER” (PRIMEFOUR THERAPEUTICS, INC., priority 2022, published 2025)
